Experimental data as given in PubChem BioAssay (NCI).
Where “and” joins values, the source holds several entries; their conditions need not be identical. Equal entries are not always repeated.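 Following 48 hours of exposure in 96-well plates, responses at five concentrations were used to interpolate endpoints linearly. GI50 is the concentration that inhibits growth by half. TGI is the concentration that stops growth completely.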 Where a SMILES comes first, the peptide text is derived from it. [ ]: non-standard residue; d: D form. The star is where a group is joined. ξ: configuration not given here. dIva = CC[C@@](C)(N)C(=O)O; Aib = CC(C)(N)C(=O)O; ξP = O=C(O)C1CCCN1; βAla = NCCC(=O)O; X5 = OCN*

Legend:
Assay in all cases: DTP human tumour cell line panel, 48 h
[1] = system: HOP-62 NSCLC
[2] = system: DU-145 prostate
[3] = system: U251 CNS
[4] = system: IGROV1 ovarian
[5] = system: SF-539 CNS
[6] = system: A549 NSCLC
[7] = system: HCT-116 colon
[8] = system: SW-620 colon
[9] = system: NCI-H226 lung
[10] = system: NCI-H23 lung

Structure (SMILES)	GI50 [1] [µM]	TGI [1] [µM]	GI50 [2] [µM]	TGI [2] [µM]	GI50 [3] [µM]	TGI [3] [µM]	GI50 [4]	TGI [4] [µM]	GI50 [5] [µM]	TGI [5] [µM]	GI50 [6] [µM]	TGI [6] [µM]	GI50 [7] [µM]	TGI [7] [µM]	GI50 [8] [µM]	TGI [8] [µM]	GI50 [9] [µM]	TGI [9] [µM]	GI50 [10] [µM]	TGI [10] [µM]
NC(=S)N=Nc1c(O)[nH]c2ccccc12	167	360	126	284	188	404	66.7 µM and 162 µM	477	170	361	274	897	152	297	474	> 1000	169	307		
COC(=O)C1=C(O)C(C(=O)OC)[C@@]2(O)[C@@H](C(=O)OC)C(c3ccccc3Cl)C[C@@H]1[C@@H]2C(=O)OC (some centres undefined)	10.4	23.8	14.9	32.9	3.76	15	3.52 µM	13	14	36.7	9.04	53.9	1.97	4.12	5.46	21.9	3.77	15.1	9.79	23.3
O=S1(=O)C=C(c2ccccc2)C(c2ccccc2)=C1	1.87	4.42	1.64	3	1.54	2.88			2.14	5.94	2.13	5.11	1.09	2.28	1.07	2.39	1.68	3.34	1.86	3.93
NC(N)=N/N=C/c1ccc(Br)cc1	9.8	24.2	5.5	22.1	3.58	15.4	4.91 µM	24.2	2.33	6.35	6.46	23.4	4.02	15.8	3.8	15.9	5.15	17.4	4.81	19.6
COC(=O)CCc1c(/C=C2\N=C(c3ccc[nH]3)C=C2OC)[nH]c(C)c1C(=O)OCc1ccccc1	0.303	2	0.345	> 55.6	0.36	2.28	0.355 µM	2.41	0.363	1.83	0.945	38.7	0.122	1.07	0.304	3.03	0.532	4.75	0.795	4.31
O=C1C=C(OCC=C(Cl)Cl)C(=O)c2ccccc21	54.9	> 100	2.8	8.94	2.41	13.8	4.04 µM	23.5	43.9	> 100	33.2	> 100	2.52	7.71	3.51	11.1	18.7	67.5	3.63	> 85
COc1ccc2c(c1)C(=O)c1c-2n(CCCNCCO)c(=O)c2cc([N+](=O)[O-])ccc12	< 0.01	0.145	< 0.01		< 0.01	1.03	0.0283 µM	1.81	< 0.01	< 0.01			< 0.01	0.192	< 0.01	1.14	0.0477	0.97	< 0.01	0.0341
O=C(CN1CCN(c2ccccn2)CC1)Nc1ccc(Cl)cc1C(=O)c1ccccc1Cl			> 100	> 100	> 100	> 100	89.2 µM	> 100	45.9	> 100	14.3	> 100	10	> 100	> 100	> 100	> 100	> 100	86.2	> 100
CC[C@@](C)(NC(=O)[C@H](C)NC(=O)CCNC(=O)C(C)(C)NC(=O)[C@H](C)NC(=O)[C@@H]1CCCN1C(=O)[C@@](C)(CC)NC(=O)[C@H](Cc1ccccc1)NC(=O)C1CCCN1C(=O)C(C)(C)NC(=O)C1CCCN1C(=O)C(C)(C)NC(C)=O)C(=O)NCCC(=O)N[C@@H](CC(C)C)C(=O)NC(C)(C)C(=O)NCCC(=O)N[C@@H](CC(C)C)C(=O)NC(C)(C)C(=O)NC(C)(C)C(=O)N[C@@H](CC(C)C)C(=O)NCCC(=O)NCO (some centres undefined) (Ac-[Aib][ξP][Aib][ξP]F[dIva]PA[Aib][βAla]A[dIva][βAla]L[Aib][βAla]L[Aib][Aib]L[βAla]-X5)	0.18	0.383	0.125	0.338	0.0814	0.268			0.131	0.354	0.133	0.351	0.218	0.431	0.149	0.403	0.101	0.342	0.088	0.32
